Reference: ChEMBL document CHEMBL1156337, “Synthesis and evaluation of novel benzothiazole derivatives based on the bithiophene structure as potential radiotracers for beta-amyloid plaques in Alzheimer's disease” (Bioorg Med Chem, 2010)
The source made the active and inactive calls. The calls are words filed in the database; no cut-off is given here.

What was measured:
Mus musculus [1] = species: Mus musculus; assay: Binding affinity to beta amyloid plaques in brain sections of TgC57 transgenic mouse transfected with APP and PS1 double mutant after 10 mins using thioflavin-S stain; type: tissue-based
[2] = Displacement of [125I]TZDM from amyloid beta (1 to 40) aggregates after 2 hrs
[3] = Displacement of [125I]TZDM from amyloid beta (1 to 42) aggregates after 2 hrs
Muscle tissue [4] = assay: Biodistribution in muscle of Kunming mouse at 1 uCi, iv after 60 mins by gamma counting; type: ADME, organism-based; settings: in vivo, 1 h
Muscle tissue [5] = assay: Biodistribution in muscle of Kunming mouse at 1 uCi, iv after 120 mins by gamma counting; type: ADME, organism-based; settings: in vivo, 2 h
Muscle tissue [6] = assay: Biodistribution in muscle of Kunming mouse at 1 uCi, iv after 240 mins by gamma counting; type: ADME, organism-based; settings: in vivo, 4 h
[7] = Partition coefficient, log D in n-octanol/0.05 M phosphate buffer at pH 7.4; type: physicochemical
Plasma = assay: Metabolic stability in mouse plasma assessed as deiodination after 2 hrs by HPLC analysis; type: ADME, cell-free
Blood [8] = assay: Biodistribution in blood of Kunming mouse at 1 uCi, iv after 30 mins by gamma counting; type: ADME, organism-based; settings: in vivo, 0.5 h
Blood [9] = assay: Biodistribution in blood of Kunming mouse at 1 uCi, iv after 2 mins by gamma counting; type: ADME, organism-based; settings: in vivo
Blood [10] = assay: Biodistribution in blood of Kunming mouse at 1 uCi, iv after 60 mins by gamma counting; type: ADME, organism-based; settings: in vivo, 1 h
Blood [11] = assay: Biodistribution in blood of Kunming mouse at 1 uCi, iv after 120 mins by gamma counting; type: ADME, organism-based; settings: in vivo, 2 h
Blood [12] = assay: Biodistribution in blood of Kunming mouse at 1 uCi, iv after 240 mins by gamma counting; type: ADME, organism-based; settings: in vivo, 4 h
Brain [13] = assay: Biodistribution in brain of Kunming mouse at 1 uCi, iv after 2 mins by gamma counting; type: ADME, organism-based; settings: in vivo
Brain [14] = assay: Biodistribution in brain of Kunming mouse at 1 uCi, iv after 30 mins by gamma counting; type: ADME, organism-based; settings: in vivo, 0.5 h
Brain [15] = assay: Biodistribution in brain of Kunming mouse at 1 uCi, iv after 60 mins by gamma counting; type: ADME, organism-based; settings: in vivo, 1 h
Brain [16] = assay: Biodistribution in brain of Kunming mouse at 1 uCi, iv after 120 mins by gamma counting; type: ADME, organism-based; settings: in vivo, 2 h
Brain [17] = assay: Biodistribution in brain of Kunming mouse at 1 uCi, iv after 240 mins by gamma counting; type: ADME, organism-based; settings: in vivo, 4 h
Heart [18] = assay: Biodistribution in heart of Kunming mouse at 1 uCi, iv after 2 mins by gamma counting; type: ADME, organism-based; settings: in vivo
Heart [19] = assay: Biodistribution in heart of Kunming mouse at 1 uCi, iv after 30 mins by gamma counting; type: ADME, organism-based; settings: in vivo, 0.5 h
Heart [20] = assay: Biodistribution in heart of Kunming mouse at 1 uCi, iv after 60 mins by gamma counting; type: ADME, organism-based; settings: in vivo, 1 h
Heart [21] = assay: Biodistribution in heart of Kunming mouse at 1 uCi, iv after 120 mins by gamma counting; type: ADME, organism-based; settings: in vivo, 2 h
Heart [22] = assay: Biodistribution in heart of Kunming mouse at 1 uCi, iv after 240 mins by gamma counting; type: ADME, organism-based; settings: in vivo, 4 h
Liver [23] = assay: Biodistribution in liver of Kunming mouse at 1 uCi, iv after 2 mins by gamma counting; type: ADME, organism-based; settings: in vivo
Liver [24] = assay: Biodistribution in liver of Kunming mouse at 1 uCi, iv after 30 mins by gamma counting; type: ADME, organism-based; settings: in vivo, 0.5 h
Liver [25] = assay: Biodistribution in liver of Kunming mouse at 1 uCi, iv after 60 mins by gamma counting; type: ADME, organism-based; settings: in vivo, 1 h
Liver [26] = assay: Biodistribution in liver of Kunming mouse at 1 uCi, iv after 120 mins by gamma counting; type: ADME, organism-based; settings: in vivo, 2 h
Liver [27] = assay: Biodistribution in liver of Kunming mouse at 1 uCi, iv after 240 mins by gamma counting; type: ADME, organism-based; settings: in vivo, 4 h
Spleen [28] = assay: Biodistribution in spleen of Kunming mouse at 1 uCi, iv after 2 mins by gamma counting; type: ADME, organism-based; settings: in vivo
Spleen [29] = assay: Biodistribution in spleen of Kunming mouse at 1 uCi, iv after 30 mins by gamma counting; type: ADME, organism-based; settings: in vivo, 0.5 h
Spleen [30] = assay: Biodistribution in spleen of Kunming mouse at 1 uCi, iv after 60 mins by gamma counting; type: ADME, organism-based; settings: in vivo, 1 h
Spleen [31] = assay: Biodistribution in spleen of Kunming mouse at 1 uCi, iv after 120 mins by gamma counting; type: ADME, organism-based; settings: in vivo, 2 h
Spleen [32] = assay: Biodistribution in spleen of Kunming mouse at 1 uCi, iv after 240 mins by gamma counting; type: ADME, organism-based; settings: in vivo, 4 h
Lung [33] = assay: Biodistribution in lung of Kunming mouse at 1 uCi, iv after 2 mins by gamma counting; type: ADME, organism-based; settings: in vivo
Lung [34] = assay: Biodistribution in lung of Kunming mouse at 1 uCi, iv after 30 mins by gamma counting; type: ADME, organism-based; settings: in vivo, 0.5 h
Lung [35] = assay: Biodistribution in lung of Kunming mouse at 1 uCi, iv after 60 mins by gamma counting; type: ADME, organism-based; settings: in vivo, 1 h
Lung [36] = assay: Biodistribution in lung of Kunming mouse at 1 uCi, iv after 120 mins by gamma counting; type: ADME, organism-based; settings: in vivo, 2 h
Lung [37] = assay: Biodistribution in lung of Kunming mouse at 1 uCi, iv after 240 mins by gamma counting; type: ADME, organism-based; settings: in vivo, 4 h
Kidney [38] = assay: Biodistribution in kidney of Kunming mouse at 1 uCi, iv after 2 mins by gamma counting; type: ADME, organism-based; settings: in vivo
Kidney [39] = assay: Biodistribution in kidney of Kunming mouse at 1 uCi, iv after 30 mins by gamma counting; type: ADME, organism-based; settings: in vivo, 0.5 h
Kidney [40] = assay: Biodistribution in kidney of Kunming mouse at 1 uCi, iv after 60 mins by gamma counting; type: ADME, organism-based; settings: in vivo, 1 h
Kidney [41] = assay: Biodistribution in kidney of Kunming mouse at 1 uCi, iv after 120 mins by gamma counting; type: ADME, organism-based; settings: in vivo, 2 h
Kidney [42] = assay: Biodistribution in kidney of Kunming mouse at 1 uCi, iv after 240 mins by gamma counting; type: ADME, organism-based; settings: in vivo, 4 h
Stomach [43] = assay: Biodistribution in stomach of Kunming mouse at 1 uCi, iv after 2 mins by gamma counting measured per organ; type: ADME, organism-based; settings: in vivo
Stomach [44] = assay: Biodistribution in stomach of Kunming mouse at 1 uCi, iv after 30 mins by gamma counting measured per organ; type: ADME, organism-based; settings: in vivo, 0.5 h
Stomach [45] = assay: Biodistribution in stomach of Kunming mouse at 1 uCi, iv after 60 mins by gamma counting measured per organ; type: ADME, organism-based; settings: in vivo, 1 h
Stomach [46] = assay: Biodistribution in stomach of Kunming mouse at 1 uCi, iv after 120 mins by gamma counting measured per organ; type: ADME, organism-based; settings: in vivo, 2 h
Stomach [47] = assay: Biodistribution in stomach of Kunming mouse at 1 uCi, iv after 240 mins by gamma counting measured per organ; type: ADME, organism-based; settings: in vivo, 4 h
Muscle tissue [48] = assay: Biodistribution in muscle of Kunming mouse at 1 uCi, iv after 2 mins by gamma counting; type: ADME, organism-based; settings: in vivo
Muscle tissue [49] = assay: Biodistribution in muscle of Kunming mouse at 1 uCi, iv after 30 mins by gamma counting; type: ADME, organism-based; settings: in vivo, 0.5 h
Mus musculus [50] = species: Mus musculus; assay: Binding affinity to beta amyloid plaques in brain sections of TgC57 transgenic mouse transfected with APP and PS1 double mutant after 30 mins by autoradiography; type: tissue-based; settings: tested as the 125I-labelled form
Mus musculus [51] = species: Mus musculus; assay: Binding affinity to beta amyloid plaques in brain sections of TgC57 transgenic mouse transfected with APP and PS1 double mutant after 30 mins by autoradiography in the presence of thioflavin-T; type: tissue-based; settings: tested as the 125I-labelled form

For COc1ccc2nc(-c3ccc(-c4ccc(Br)s4)s3)sc2c1, the Activity (Mus musculus [1]) was “Active”, the Ki [2] was 1.28 nM and the Ki [3] was 0.21 nM.
With COc1ccc2nc(-c3ccc(-c4cccs4)s3)sc2c1 the Activity (Mus musculus [1]) was “Active”, the Ki [2] was 0.6 nM and the Ki [3] was 2.09 nM.
Work on COc1ccc2nc(-c3ccc(-c4ccc([125I])s4)s3)sc2c1 yielded a Drug uptake (Muscle tissue [4]) of 3.56 % ID/g, a Drug uptake (Muscle tissue [5]) of 2.46 % ID/g and a Drug uptake (Muscle tissue [6]) of 1.95 % ID/g. The logD [7] was 3.27, the Stability (Plasma) was “Stable” and the Drug uptake (Blood [8]) was 6.55 % ID/g. It also gave a Drug uptake (Blood [9]) of 23.34 % ID/g, a Drug uptake (Blood [10]) of 6.58 % ID/g and a Drug uptake (Blood [11]) of 6.62 % ID/g. The Drug uptake (Blood [12]) was 5.05 % ID/g, the Drug uptake (Brain [13]) was 0.87 % ID/g and the Drug uptake (Brain [14]) was 0.64 % ID/g. It also gave a Drug uptake (Brain [15]) of 0.77 % ID/g, a Drug uptake (Brain [16]) of 0.68 % ID/g and a Drug uptake (Brain [17]) of 0.53 % ID/g. It also gave a Drug uptake (Heart [18]) of 16.13 % ID/g, a Drug uptake (Heart [19]) of 5.94 % ID/g and a Drug uptake (Heart [20]) of 4.74 % ID/g. It also gave a Drug uptake (Heart [21]) of 3.48 % ID/g, a Drug uptake (Heart [22]) of 2.5 % ID/g and a Drug uptake (Liver [23]) of 35.25 % ID/g. For the same compound, the Drug uptake (Liver [24]) was 6.98 % ID/g, the Drug uptake (Liver [25]) was 5.76 % ID/g and the Drug uptake (Liver [26]) was 4.33 % ID/g. The Drug uptake (Liver [27]) was 3.23 % ID/g, the Drug uptake (Spleen [28]) was 19.04 % ID/g and the Drug uptake (Spleen [29]) was 7.11 % ID/g. It also gave a Drug uptake (Spleen [30]) of 6.24 % ID/g, a Drug uptake (Spleen [31]) of 4.92 % ID/g and a Drug uptake (Spleen [32]) of 4.49 % ID/g. The Drug uptake (Lung [33]) was 43.6 % ID/g, the Drug uptake (Lung [34]) was 10.28 % ID/g and the Drug uptake (Lung [35]) was 8.64 % ID/g. It also gave a Drug uptake (Lung [36]) of 7.7 % ID/g, a Drug uptake (Lung [37]) of 6.12 % ID/g and a Drug uptake (Kidney [38]) of 14.3 % ID/g. For the same compound, the Drug uptake (Kidney [39]) was 6.49 % ID/g, the Drug uptake (Kidney [40]) was 6.28 % ID/g and the Drug uptake (Kidney [41]) was 5.67 % ID/g. The Drug uptake (Kidney [42]) was 4.53 % ID/g, the Drug uptake (Stomach [43]) was 1.31 %ID and the Drug uptake (Stomach [44]) was 15.84 %ID. For the same compound, the Drug uptake (Stomach [45]) was 20.24 %ID, the Drug uptake (Stomach [46]) was 33.95 %ID and the Drug uptake (Stomach [47]) was 19.37 %ID. The Drug uptake (Muscle tissue [48]) was 2.73 % ID/g and the Drug uptake (Muscle tissue [49]) was 3.42 % ID/g.
For Brc1ccc2nc(-c3ccc(-c4cccs4)s3)sc2c1, the Activity (Mus musculus [1]) was “Active”, the Ki [2] was 0.57 nM and the Ki [3] was 0.6 nM.
For c1csc(-c2ccc(-c3nc4ccccc4s3)s2)c1, the Activity (Mus musculus [1]) was “Active”, the Ki [2] was 3.94 nM and the Ki [3] was 4.64 nM.
With COc1ccc2nc(-c3ccc(-c4ccc(I)s4)s3)sc2c1 the Activity (Mus musculus [1]) was “Active”, the Activity (Mus musculus [50]) was “Active” and the Activity (Mus musculus [51]) was “inactive”. It also gave a Ki [2] of 0.61 nM and a Ki [3] of 0.11 nM.
For CN(C)c1ccc(-c2nc3ccc(I)cc3s2)cc1, the Ki [2] was 2.2 nM and the Ki [3] was 0.9 nM.
